One assay addresses DGKζ (Homo sapiens (Human), UniProt Q13574). In words: Biochemical DGK IC50 assay (ADP-Glo, lipid micelle substrate), DGKζ. As to conditions: full length DGKζ 0.5 nM, ATP 140 μM, DAG 80 μM. The procedure, abridged:
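Full-length human His-TEV-tagged DGKζ, expressed in Sf9 cells and purified, was run at room temperature on DAG/PS lipid micelles in 50 mM HEPES, 10 mM MgCl2, 0.01 mM CaCl2 buffer. After 1 h reaction, ADP formed was detected by ADP-Glo luminescence. IC50s came from inhibition across increasing compound concentrations.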
On the technique in general: In ADP-Glo the light output rises with the ADP produced.

In the next assay the target is DGKα (Homo sapiens (Human), UniProt P23743). In words: Biochemical DGK IC50 assay (ADP-Glo, lipid micelle substrate), DGKα. Further: full length DGKα 7.5 nM. As to conditions: full length DGKα […], ATP 140 μM, DAG 80 μM. A digest of the protocol:
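Full-length human DGKα assayed by ADP-Glo with DAG/PS lipid micelle substrate at room temperature in 50 mM HEPES, 10 mM MgCl2, 0.01% BSA, 0.1 mM Na3VO4, 0.005% Tween-20, 0.01 mM CaCl2.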

Chain of DGKα (P23743 whole entry): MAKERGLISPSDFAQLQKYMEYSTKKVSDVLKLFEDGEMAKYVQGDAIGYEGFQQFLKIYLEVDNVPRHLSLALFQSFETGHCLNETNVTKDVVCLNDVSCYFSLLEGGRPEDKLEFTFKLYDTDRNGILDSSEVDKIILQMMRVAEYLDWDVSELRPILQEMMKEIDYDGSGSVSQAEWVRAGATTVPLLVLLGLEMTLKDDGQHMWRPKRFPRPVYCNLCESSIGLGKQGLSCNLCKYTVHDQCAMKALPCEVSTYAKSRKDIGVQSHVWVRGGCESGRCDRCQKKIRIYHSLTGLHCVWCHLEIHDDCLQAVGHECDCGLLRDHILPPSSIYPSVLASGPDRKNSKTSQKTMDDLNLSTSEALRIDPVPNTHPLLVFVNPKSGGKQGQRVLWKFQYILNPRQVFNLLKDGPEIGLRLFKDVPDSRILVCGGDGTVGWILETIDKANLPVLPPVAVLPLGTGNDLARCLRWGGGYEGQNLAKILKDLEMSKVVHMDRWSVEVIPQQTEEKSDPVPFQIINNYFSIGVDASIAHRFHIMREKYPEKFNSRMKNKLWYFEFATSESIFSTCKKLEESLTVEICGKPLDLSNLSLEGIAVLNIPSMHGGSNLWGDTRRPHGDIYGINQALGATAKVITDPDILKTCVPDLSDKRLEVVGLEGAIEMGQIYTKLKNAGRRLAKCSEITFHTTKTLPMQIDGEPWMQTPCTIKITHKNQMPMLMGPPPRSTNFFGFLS
Chain of DGKζ (Q13574 other isoform, or with tags, fused parts or gaps): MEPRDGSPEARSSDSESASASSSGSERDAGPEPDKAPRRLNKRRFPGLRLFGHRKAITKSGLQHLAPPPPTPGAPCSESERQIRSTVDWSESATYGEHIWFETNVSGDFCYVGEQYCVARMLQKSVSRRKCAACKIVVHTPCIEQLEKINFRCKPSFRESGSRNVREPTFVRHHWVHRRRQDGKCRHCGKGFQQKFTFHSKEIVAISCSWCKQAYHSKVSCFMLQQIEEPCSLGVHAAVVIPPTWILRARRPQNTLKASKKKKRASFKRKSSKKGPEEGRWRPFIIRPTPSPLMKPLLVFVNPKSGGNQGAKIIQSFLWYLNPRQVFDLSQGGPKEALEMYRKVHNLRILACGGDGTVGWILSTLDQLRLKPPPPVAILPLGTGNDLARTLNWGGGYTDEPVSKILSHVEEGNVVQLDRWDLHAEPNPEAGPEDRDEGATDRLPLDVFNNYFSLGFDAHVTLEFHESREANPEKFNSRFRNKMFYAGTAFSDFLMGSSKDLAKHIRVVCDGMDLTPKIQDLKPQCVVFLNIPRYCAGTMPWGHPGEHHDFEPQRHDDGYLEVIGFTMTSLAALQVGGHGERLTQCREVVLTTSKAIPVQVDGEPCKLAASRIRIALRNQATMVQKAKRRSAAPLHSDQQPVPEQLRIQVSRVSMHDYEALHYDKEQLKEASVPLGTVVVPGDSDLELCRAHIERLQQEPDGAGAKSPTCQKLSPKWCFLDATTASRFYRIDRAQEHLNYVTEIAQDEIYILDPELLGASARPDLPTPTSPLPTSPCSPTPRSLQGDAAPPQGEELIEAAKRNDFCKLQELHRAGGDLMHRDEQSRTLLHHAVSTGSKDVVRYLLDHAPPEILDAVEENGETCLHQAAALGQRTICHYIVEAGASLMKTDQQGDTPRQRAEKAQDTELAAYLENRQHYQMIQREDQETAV

Take `CC[C@H]1CN(C(C)c2ccc(CN3CCC(OC)C3)cc2)[C@H](CC)CN1c1cc(=O)n(C)c2cn(CC#N)nc12` (single isomer, unassigned) [Compound A203b]: the IC50 (usually the concentration at which inhibition is half-maximal) against DGKζ stood at 7610 nM; against DGKα, 11600 nM.

Regarding `CC[C@H]1CN(C(C)c2ccc3c(C)cnn3c2)[C@H](CC)CN1c1cc(=O)n(C)c2cn(CC#N)nc12` (single isomer, unassigned) [Compound A204a], the IC50 at DGKζ was 31 nM; on DGKα it was 467 nM.

Turning to `CC[C@H]1CN(C(C)c2ccc3c(C)cnn3c2)[C@H](CC)CN1c1cc(=O)n(C)c2cn(CC#N)nc12` (single isomer, unassigned) [Compound A204b], the values for the IC50 against DGKζ and against DGKα were 971 nM and 7300 nM, respectively.

In the case of `CC#CCn1cc2c(n1)c(N1C[C@@H](CC)N(C(C)c3cnc4ccccc4n3)C[C@@H]1CC)cc(=O)n2C` (single isomer, unassigned) [Compound A206a], the IC50 against DGKζ came out at 8300 nM; against DGKα it was 480 nM.

In the case of `CC#CCn1cc2c(n1)c(N1C[C@@H](CC)N(C(C)c3cnc4ccccc4n3)C[C@@H]1CC)cc(=O)n2C` (single isomer, unassigned) [Compound A206b], the IC50 against DGKζ amounted to 103 nM; against DGKα, 25 nM.

With `CC[C@H]1CN(C(C)c2cc(F)c(CN3CCS(=O)(=O)CC3)c(F)c2)[C@H](CC)CN1c1cc(=O)n(C)c2cn(CC#N)nc12` (stereo partly drawn) [Compound A5, 2-(7-((2S,5R)-4-(1-(4-((1,1-dioxidothiomorpholino)methyl)-3,5-difluorophenyl)ethyl)-2,5-diethylpiperazin-1-yl)-4-methyl-5-oxo-4,5-dihydro-2H-pyrazolo[4,3-b]pyridin-2-yl)acetonitrile], the values for the IC50 against DGKζ and against DGKα were 73 nM and 497 nM, respectively.

As to `CC[C@H]1CN(C(C)c2ccc(C)cc2C)[C@H](CC)CN1c1cc(=O)n(C)c2cn(CC#N)nc12` (stereo partly drawn) [Compound A6, 2-(7-((2S,5R)-4-(1-(2,4-dimethylphenyl)ethyl)-2,5-diethylpiperazin-1-yl)-4-methyl-5-oxo-4,5-dihydro-2H-pyrazolo[4,3-b]pyridin-2-yl)acetonitrile], the IC50 against DGKζ amounted to 219 nM; against DGKα, 8530 nM.

For `CCc1ccc(C(C)N2C[C@H](CC)N(c3cc(=O)n(C)c4cn(CC#N)nc34)C[C@H]2CC)cc1` (stereo partly drawn) [Compound A7, 2-(7-((2S,5R)-2,5-diethyl-4-(1-(4-ethylphenyl)ethyl)piperazin-1-yl)-4-methyl-5-oxo-4,5-dihydro-2H-pyrazolo[4,3-b]pyridin-2-yl)acetonitrile], the IC50 stood at 152 nM on DGKζ and 129 nM against DGKα.

`CC[C@H]1CN(C(C)c2ccc(C(F)(F)F)c(C)c2)[C@H](CC)CN1c1cc(=O)n(C)c2cn(CC#N)nc12` (stereo partly drawn) [Compound A8, 2-(7-((2S,5R)-2,5-diethyl-4-(1-(3-methyl-4-(trifluoromethyl)phenyl)ethyl)piperazin-1-yl)-4-methyl-5-oxo-4,5-dihydro-2H-pyrazolo[4,3-b]pyridin-2-yl)acetonitrile]: the IC50 at DGKζ amounted to 229 nM; on DGKα, 1000 nM.

Regarding `CC[C@H]1CN(C(C)c2ccc(OC)c(C)c2)[C@H](CC)CN1c1cc(=O)n(C)c2cn(CC#N)nc12` (stereo partly drawn) [Compound A9, 2-(7-((2S,5R)-2,5-diethyl-4-(1-(4-methoxy-3-methylphenyl)ethyl)piperazin-1-yl)-4-methyl-5-oxo-4,5-dihydro-2H-pyrazolo[4,3-b]pyridin-2-yl)acetonitrile], the IC50 against DGKζ stood at 339 nM; at DGKα, 2110 nM.

With `CC[C@H]1CN(C(C)c2ccc(C(C)(F)F)cc2)[C@H](CC)CN1c1cc(=O)n(C)c2cn(CC#N)nc12` (stereo partly drawn) [Compound A10, 2-(7-((2S,5R)-4-(1-(4-(1,1-difluoroethyl)phenyl)ethyl)-2,5-diethylpiperazin-1-yl)-4-methyl-5-oxo-4,5-dihydro-2H-pyrazolo[4,3-b]pyridin-2-yl)acetonitrile], the IC50 at DGKζ amounted to 104 nM; at DGKα it was 162 nM.

For the compound `CC[C@H]1CN(C(C)c2ccc(OCCOC)cc2)[C@H](CC)CN1c1cc(=O)n(C)c2cn(CC#N)nc12` (stereo partly drawn) [Compound A11, 2-(7-((2S,5R)-2,5-diethyl-4-(1-(4-(2-methoxyethoxy)phenyl)ethyl)piperazin-1-yl)-4-methyl-5-obo-4,5-dihydro-2H-pyrazolo[4,3-b]pyridin-2-yl)acetonitrile], the IC50 against DGKζ came out at 500 nM; at DGKα, 79 nM.

Take `CC[C@H]1CN(C(C)c2ccc(OC)cc2F)[C@H](CC)CN1c1cc(=O)n(C)c2cn(CC#N)nc12` (stereo partly drawn) [Compound A12, 2-(7-((2S,5R)-2,5-diethyl-4-(1-(2-fluoro-4-methoxyphenyl)ethyl)piperazin-1-yl)-4-methyl-5-oxo-4,5-dihydro-2H-pyrazolo[4,3-b]pyridin-2-yl)acetonitrile]: the IC50 at DGKζ amounted to 92 nM; against DGKα it was 440 nM.

As for `CC[C@H]1CN(C(C)c2ccc(OC3CCOC3)cc2F)[C@H](CC)CN1c1cc(=O)n(C)c2cn(CC#N)nc12` (stereo partly drawn) [Compound A13, 2-(7-((2S,5R)-2,5-diethyl-4-(1-(2-fluoro-4-((tetrahydrofuran-3-yl)oxy)phenyl)ethyl)piperazin-1-yl)-4-methyl-5-oxo-4,5-dihydro-2H-pyrazolo[4,3-b]pyridin-2-yl)acetonitrile], the IC50 against DGKζ came to 323 nM; against DGKα it was 838 nM.

Take `CC[C@H]1CN(C(C)c2ccc(OC)cc2C)[C@H](CC)CN1c1cc(=O)n(C)c2cn(CC#N)nc12` (stereo partly drawn) [Compound A14, 2-(7-((2S,5R)-2,5-diethyl-4-(1-(4-methoxy-2-methylphenyl)ethyl)piperazin-1-yl)-4-methyl-5-oxo-4,5-dihydro-2H-pyrazolo[4,3-b]pyridin-2-yl)acetonitrile]: the IC50 against DGKζ came out at 63 nM; against DGKα, 8410 nM.

For `CC[C@H]1CN(C(C)c2ccc(COC3CCOCC3)cc2)[C@H](CC)CN1c1cc(=O)n(C)c2cn(CC#N)nc12` (stereo partly drawn) [Compound A15, 2-(7-((2S,5R)-2,5-diethyl-4-(1-(4-(((tetrahydro-2H-pyran-4-yl)oxy)methyl)phenyl)ethyl)piperazin-1-yl)-4-methyl-5-oxo-4,5-dihydro-2H-pyrazolo[4,3-b]pyridin-2-yl)acetonitrile], the IC50 against DGKζ came to 219 nM; at DGKα, 193 nM.

Take `CC[C@H]1CN(C(C)c2ccc(COC3COC3)cc2)[C@H](CC)CN1c1cc(=O)n(C)c2cn(CC#N)nc12` (stereo partly drawn) [Compound A16, 2-(7-((2S,5R)-2,5-diethyl-4-(1-(4-((oxetan-3-yloxy)methyl)phenyl)ethyl)piperazin-1-yl)-4-methyl-5-oxo-4,5-dihydro-2H-pyrazolo[4,3-b]pyridin-2-yl)acetonitrile]: the IC50 against DGKζ came out at 170 nM; on DGKα, 204 nM.

Consider `CC[C@H]1CN(C(C)c2ccc(COC3CCOC3)cc2)[C@H](CC)CN1c1cc(=O)n(C)c2cn(CC#N)nc12` (stereo partly drawn) [Compound A17, 2-(7-((2S,5R)-2,5-diethyl-4-(1-(4-(((tetrahydrofuran-3-yl)oxy)methyl)phenyl)ethyl)piperazin-1-yl)-4-methyl-5-oxo-4,5-dihydro-2H-pyrazolo[4,3-b]pyridin-2-yl)acetonitrile], for which the figures for the IC50 at DGKζ and against DGKα were 315 nM and 343 nM, respectively.

With `CC[C@H]1CN(C(C)c2ccc(COCCOC)cc2)[C@H](CC)CN1c1cc(=O)n(C)c2cn(CC#N)nc12` (stereo partly drawn) [Compound A18, 2-(7-((2S,5R)-2,5-diethyl-4-(1-(4-((2-methoxyethoxy)methyl)phenyl)ethyl)piperazin-1-yl)-4-methyl-5-oxo-4,5-dihydro-2H-pyrazolo[4,3-b]pyridin-2-yl)acetonitrile], the IC50 at DGKζ is 97 nM; at DGKα, 249 nM.

In the case of `CC[C@H]1CN(C(C)c2ccc(OC)c(F)c2)[C@H](CC)CN1c1cc(=O)n(C)c2cn(CC#N)nc12` (stereo partly drawn) [Compound A20, 2-(7-((2S,5R)-2,5-diethyl-4-(1-(3-fluoro-4-methoxyphenyl)ethyl)piperazin-1-yl)-4-methyl-5-oxo-4,5-dihydro-2H-pyrazolo[4,3-b]pyridin-2-yl)acetonitrile], the IC50 against DGKζ was determined as 312 nM; against DGKα, 378 nM.

With `CC[C@H]1CN(C(C)c2ccc(OC3COC3)cc2F)[C@H](CC)CN1c1cc(=O)n(C)c2cn(CC#N)nc12` (stereo partly drawn) [Compound A22, 2-(7-((2S,5R)-2,5-diethyl-4-(1-(2-fluoro-4-(oxetan-3-yloxy)phenyl)ethyl)piperazin-1-yl)-4-methyl-5-oxo-4,5-dihydro-2H-pyrazolo[4,3-b]pyridin-2-yl)acetonitrile], the figures for the IC50 against DGKζ and at DGKα were 465 nM and 833 nM, respectively.

For the compound `CC[C@H]1CN(C(C)c2ccc(OC3(C)COC3)cc2)[C@H](CC)CN1c1cc(=O)n(C)c2cn(CC#N)nc12` (stereo partly drawn) [Compound A24, 2-(7-((2S,5R)-2,5-diethyl-4-(1-(4-((3-methyloxetan-3-yl)oxy)phenyl)ethyl)piperazin-1-yl)-4-methyl-5-oxo-4,5-dihydro-2H-pyrazolo[4,3-b]pyridin-2-yl)acetonitrile], the results for the IC50 against DGKζ and at DGKα were 427 nM and 100 nM, respectively.

Consider `CC[C@H]1CN(C(C)c2ccc(CN3CC(F)(F)C3)cc2)[C@H](CC)CN1c1cc(=O)n(C)c2cn(CC#N)nc12` (stereo partly drawn) [Compound A27, 2-(7-((2S,5R)-4-(1-(4-((3,3-difluoroazetidin-1-yl)methyl)phenyl)ethyl)-2,5-diethylpiperazin-1-yl)-4-methyl-5-oxo-4,5-dihydro-2H-pyrazolo[4,3-b]pyridin-2-yl)acetonitrile], for which the IC50 against DGKζ amounted to 202 nM; against DGKα, 50 nM.
